Values of other authors as cited in US20110091889A1, “CENTROSOME-ASSAY” (4SC AG, priority 2008, published 2011).

Molecular target: T1, Eg5 (Homo sapiens, UniProt P52732)
T1 sequence (P52732 1-1056): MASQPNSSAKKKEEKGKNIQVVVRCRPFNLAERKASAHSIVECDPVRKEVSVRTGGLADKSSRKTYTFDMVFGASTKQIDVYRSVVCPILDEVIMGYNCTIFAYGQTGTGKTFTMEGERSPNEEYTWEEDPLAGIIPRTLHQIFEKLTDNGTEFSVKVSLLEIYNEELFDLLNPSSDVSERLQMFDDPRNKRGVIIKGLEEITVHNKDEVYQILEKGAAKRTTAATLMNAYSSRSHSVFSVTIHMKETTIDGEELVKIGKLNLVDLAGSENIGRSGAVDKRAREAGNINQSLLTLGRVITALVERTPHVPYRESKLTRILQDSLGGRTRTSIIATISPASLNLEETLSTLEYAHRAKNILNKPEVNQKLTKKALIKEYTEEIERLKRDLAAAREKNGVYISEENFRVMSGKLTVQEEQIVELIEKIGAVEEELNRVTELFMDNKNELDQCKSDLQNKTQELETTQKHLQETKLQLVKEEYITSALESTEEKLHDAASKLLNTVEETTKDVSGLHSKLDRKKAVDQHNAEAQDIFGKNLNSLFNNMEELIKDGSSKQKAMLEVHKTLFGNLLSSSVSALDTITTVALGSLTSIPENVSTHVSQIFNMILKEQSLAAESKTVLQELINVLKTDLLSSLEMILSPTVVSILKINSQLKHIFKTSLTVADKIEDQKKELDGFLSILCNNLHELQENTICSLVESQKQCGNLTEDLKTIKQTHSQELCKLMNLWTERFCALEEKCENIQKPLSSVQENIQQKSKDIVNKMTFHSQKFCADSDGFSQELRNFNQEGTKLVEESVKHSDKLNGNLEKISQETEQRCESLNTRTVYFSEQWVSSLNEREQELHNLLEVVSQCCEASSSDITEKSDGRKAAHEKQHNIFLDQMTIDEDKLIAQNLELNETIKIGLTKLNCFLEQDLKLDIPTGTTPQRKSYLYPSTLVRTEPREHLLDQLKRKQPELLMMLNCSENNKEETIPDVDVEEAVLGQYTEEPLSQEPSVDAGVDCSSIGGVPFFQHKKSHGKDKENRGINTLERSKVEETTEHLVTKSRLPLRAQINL
Details: as compared to the (R)-enantiomer; in vitro and in vivo

relative potency as inhibitor of Eg5 activity: more potent inhibitor of Eg5 activity
Structure (SMILES): CCOC(=O)C1=C(C)NC(=S)N[C@H]1c1cccc(O)c1 [(S)-monastrol]
